Test results: article PMC5073322, “Novel Natural Product-like Caged Xanthones Bearing a Carbamate Moiety Exhibit Antitumor Potency and Anti-Angiogenesis Activity In vivo” (Scientific Reports, 2016)

Assays:
HUVECs [1] = test: Tube formation assay; format: cell-based, human; settings: Matrigel
Protocol: (§1) GA was reported to inhibit tumour angiogenesis and may be a viable drug candidate for anti-angiogenesis and anticancer therapies. Therefore, the anti-angiogenesis activity of the caged xanthone derivative 8n was evaluated. Human umbilical vein endothelial cells (HUVECs) were used in all experiments. Cell migration is critical for endothelial cells to form blood vessels during angiogenesis, tumour growth and metastasis. […] Endothelial cell invasion is a critical part of angiogenesis; therefore, a transwell assay was performed to evaluate the ability of inactivated HUVECs to pass through the transwell membrane barrier in the presence of 8n.
Figure 8 8n had anti-angiogenesis activity in vitro and in vivo. (A) A wound-healing assay was used to evaluate the motility of HUVECs after treatment with 8n for 24 h. (B) Changes in cell motility were evaluated using a transwell assay of cell migration and invasion. (C) The effect of 8n on tube formation by HUVECs. […] (D) Zebrafish embryos treated with blank control or 1, 10, or 50 μg/ml of 8n.
The tube formation assay was performed as previously reported with some modifications. A 48-well cell culture plate and the tips used were pre-chilled at −20 °C for 10 mins and then carefully coated with Matrigel (200 μL/well; Becton Dickinson, Bedford, MA, USA). Caution was taken to avoid bubbles. […]

A549/cisplatin = test: MTT antiproliferative assay, cisplatin-resistant A549; format: cell-based; settings: read-out: IC50 A549/cisplatin, MTT, 72 h
Protocol: (§2) The inhibition of tumour cell growth was measured by a modified tetrazolium (MTT) salt assay, as previously described[39]. Cells were cultured in a 96-well plate and treated with culture medium alone or different concentrations of the compounds. The cells were incubated for 72 h, and then, the MTT assay reagent was added. After a 4 h incubation, the formazan product was quantitated at 570 nm. The IC50 values (the concentrations that gave rise to 50% inhibition of cell viability) were calculated using GraphPad Prism 6 using a variable slope (four parameters).

MDA-MB-231 = test: MTT antiproliferative assay, MDA-MB-231; settings: read-out: IC50 MDA-MB-231; MTT, 72 h
Protocol: as §2

Water solubility by HPLC = format: physicochemical; settings: deionized water, stirred overnight, HPLC 290 nm
Source text: The physicochemical characteristics of compounds directly determine their potential drug-like properties. Assessing a compound’s physicochemical properties before performing in vivo evaluations can guide further studies and minimize the time and cost associated with drug discovery. Therefore, parallel to the in vivo study, these solubilities of these compounds in water were experimentally measured using high-performance liquid chromatography (HPLC). Based on the results of full wave scanning, 290 nm was chosen as the maximum absorption wavelength for HPLC detection.
A HPLC system with an ultraviolet (UV) detector was used to detect the solubility of the compounds. The optimal wavelength was 290 nm. Ethanol/water (85:15) was an efficient eluent at a flow rate of 0.5 mL/min. The compounds were stirred in deionized water overnight to maximize the retention of the compounds in solution. Then, the solutions were filtered and the supernatant was used as a fluid sample for HPLC detection. The permeability (Pe) of some of the compounds was tested with the help of a standard PAMPA (pION), as previously reported. PAMPA was performed on a PAMPA Explorer instrument (pION, Inc., Woburn, MA) with the PAMPA Explorer command software (Version 3.7.4.1). The compounds were diluted to 10 mM with the system solution buffer (pH 7.4). Then, 150 μL of the diluted compound solution was transferred to a UV plate, and the UV spectrum was collected and used as a reference. Then, paint the membrane with 5 μL of gastrointestinal tract (GIT) lipid. The acceptor chamber was filled with 200 μL of acceptor solution buffer, and the donor chamber was filled with 200 μL of diluted compound solution. The PAMPA sandwich was assembled and left at 25 °C for 4 h. The UV spectra (240–500 nm) from the donor and the acceptor were collected. The permeability coefficient was calculated with the PAMPA Explorer Command software (Version 3.7.4.1) based on the area under the curve (AUC) of the reference plate, the donor plate, and the acceptor plate. The permeability coefficient of the compound was tested for four times, and the data are shown as the average values. Ketoprofen (4.5×10^−6 cm/s) and propranolol (112.8×10^−6 cm/s) were used as the standards in this assay.

HUVECs [2] = test: Transwell invasion assay; format: cell-based, human; settings: 0.25 μM
Protocol: as §1
Figure 8 8n had anti-angiogenesis activity in vitro and in vivo. (A) A wound-healing assay was used to evaluate the motility of HUVECs after treatment with 8n for 24 h. (B) Changes in cell motility were evaluated using a transwell assay of cell migration and invasion. (C) The effect of 8n on tube formation by HUVECs. HUVECs were incubated with 8n for 6 h and then transferred to Matrigel for 6 h. (D) Zebrafish embryos treated with blank control or 1, 10, or 50 μg/ml of 8n.
A transwell migration assay was performed as previously described with minor modifications. HUVECs (4×10^4 cells per well) with compound 8n were seeded in the top of transwells (Corning Incorporated) and allowed to migrate for 4 h at 37 °C, 5% CO2 and 1% O2. […]

A549 = test: MTT antiproliferative assay, A549; settings: read-out: IC50 A549; MTT, 72 h
Protocol: as §2

HepG2 = test: MTT antiproliferative assay, HepG2; settings: read-out: IC50 HepG2; MTT, 72 h
Protocol: as §2

For `CC(C)=CCC12OC(C)(C)C3CC(C=C4C(=O)c5c(OC(=O)N6CCC(N7CCCCC7)CC6)cccc5OC431)C2=O` (stereo not shown) [Compound 8n], the “tube-forming ability of HUVECs” value (HUVECs [1]) was “significantly impaired”, the IC50 (A549/cisplatin) was 1100 ± 170 nM and the IC50 (MDA-MB-231) was 1200 ± 70 nM. The “S, water solubility” value (Water solubility by HPLC) was >40 mM, the “invasion of inactivated HUVECs” value (HUVECs [2]) was “almost completely inhibited” and the IC50 (A549) was 7230 ± 560 nM. The IC50 (HepG2) was 1320 ± 450 nM.
